Experimental data reported in PubChem BioAssay AID276 (DTP/NCI, 2004).
Where “and” joins values, the source holds several entries; their conditions need not be identical. Identical values can stand only once. Inconclusive results and toxic doses are left out.

Tested on: B6C3F1 mice, Lewis lung carcinoma iv, survival T/C
Assay: NCI In Vivo Anticancer Drug Screen. Data for tumor model Lewis Lung Carcinoma (intravenous) in B6C3F1 mice
Conditions: endpoint: median survival time, schedule: Q01DX009 (ip), higher = longer survival
In short: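 Mice carrying transplanted tumors received test compound; survival in the treated group was divided by that of the vehicle-treated control group to give the T/C value.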

[1] = dose: 0.37 mg/kg/injection, vehicle: saline with Tween-80
[2] = dose: 0.75 mg/kg/injection, vehicle: saline with Tween-80
[3] = dose: 1.5 mg/kg/injection, vehicle: saline with Tween-80
[4] = dose: 3.0 mg/kg/injection, vehicle: saline with Tween-80
[5] = dose: 0.62 mg/kg/injection, vehicle: water
[6] = dose: 1.25 mg/kg/injection, vehicle: water
[7] = dose: 2.5 mg/kg/injection, vehicle: water
[8] = dose: 5.0 mg/kg/injection, vehicle: water
[9] = dose: 12.5 mg/kg/injection, vehicle: saline with Tween-80
[10] = dose: 25.0 mg/kg/injection, vehicle: saline with Tween-80
[11] = dose: 50.0 mg/kg/injection, vehicle: saline with Tween-80
[12] = dose: 100.0 mg/kg/injection, vehicle: saline with Tween-80
[13] = dose: 12.5 mg/kg/injection, vehicle: saline
[14] = dose: 25.0 mg/kg/injection, vehicle: saline
[15] = dose: 6.25 mg/kg/injection, vehicle: saline with Tween-80
[16] = dose: 50.0 mg/kg/injection, vehicle: saline
[17] = dose: 100.0 mg/kg/injection, vehicle: saline
[18] = dose: 200.0 mg/kg/injection, vehicle: saline
[19] = dose: 400.0 mg/kg/injection, vehicle: saline
[20] = dose: 3.12 mg/kg/injection, vehicle: saline with Tween-80

Q: What does the source list for `CCCCCCCC(=O)N/N=C(\CO)[C@]1(O)Cc2c(O)c3c(c(O)c2[C@@H](OC2CC(N)C(O)C(C)O2)C1)C(=O)c1c(OC)cccc1C3=O` (stereo not given in full)?
A: T/C (dose: 1.5 mg/kg/injection, vehicle: saline): 100 % of control; T/C (dose: 1.5 mg/kg/injection, vehicle: water): 108 % of control; T/C (dose: 3.0 mg/kg/injection, vehicle: saline): 102 % of control; T/C (dose: 3.0 mg/kg/injection, vehicle: water): 104 % of control; T/C (dose: 6.0 mg/kg/injection, vehicle: saline): 105 % of control; T/C (dose: 6.0 mg/kg/injection, vehicle: water): 99 % of control; T/C (dose: 12.0 mg/kg/injection, vehicle: saline): 112 % of control; T/C (dose: 12.0 mg/kg/injection, vehicle: water): 92 % of control; T/C (dose: 24.0 mg/kg/injection, vehicle: saline): 87 % of control

Q: With `CN=C(N)N/N=C(\C)c1ccc2c(c1)Cc1cc(/C(C)=N/NC(N)=NC)ccc1-2` as the compound, how does the T/C [1] read?
A: Its T/C is 95 % of control.

Q: And the T/C [2]?
A: The T/C was 97 % of control.

Q: And the T/C [3]?
A: The T/C was 94 % of control.

Q: What about the T/C [4] of the same compound?
A: The T/C was 100 % of control.

Q: Which results are given for `CCCCNC(C)[C@]1(O)Cc2c(O)c3c(c(O)c2[C@@H](OC2CC(N)C(O)C(C)O2)C1)C(=O)c1c(OC)cccc1C3=O` (stereo not given in full)?
A: T/C [5]: 107 % of control; T/C [6]: 114 % of control; T/C [7]: 103 % of control; T/C [8]: 115 % of control

Q: How did the T/C [9] turn out when `COc1ccc2c(ccc3oc([N+](=O)[O-])cc32)c1` was run?
A: The T/C was 98 % of control.

Q: What about the T/C [10] of the same compound?
A: The T/C was 110 % of control.

Q: And the T/C [11]?
A: Its T/C is 104 % of control.

Q: What about the T/C [12] of the same compound?
A: The T/C was 100 % of control.

Q: For `N=c1c(C(=O)OCc2ccccc2)ncc(CCl)n1O`, which T/C [10] is on record?
A: Its T/C is 96 % of control.

Q: What about the T/C [11] of the same compound?
A: Its T/C is 97 % of control.

Q: What about the T/C [12] of the same compound?
A: The T/C was 109 % of control.

Q: And the T/C (dose: 200.0 mg/kg/injection, vehicle: saline with Tween-80)?
A: Its T/C is 92 % of control.

Q: For `CCc1ncnc2cc(OCC3CO3)c(OC)cc12` (stereo not given), which T/C (dose: 3.13 mg/kg/injection, vehicle: saline) is on record?
A: The T/C was 98 % of control.

Q: And the T/C (dose: 6.25 mg/kg/injection, vehicle: saline)?
A: Its T/C is 100 % of control and 106 % of control.

Q: And the T/C [13]?
A: Its T/C is 102 % of control and 104 % of control.

Q: What about the T/C [14] of the same compound?
A: The T/C was 117 % of control and 118 % of control.

Q: What does the source list for `CC1/C=C/C=C/CC/C=C/C=C/C=C/C=C/C(OC2OC(C)C(O)C(N)C2O)CC2OC(CC(O)C(O)CCC(O)CC(O)CC(O)CC(=O)OC(C)C(C)C1O)CC(O)C2C(=O)O` (stereo not given)?
A: T/C [15]: 103 % of control; T/C [9]: 103 % of control; T/C [10]: 98 % of control; T/C [11]: 101 % of control

Q: Which T/C [1] does the source give for `Cc1cc2c(C(C)C)c(O)c(O)c(C=O)c2c(O)c1-c1c(C)cc2c(C(C)C)c(O)c(O)c(C=O)c2c1O` here?
A: Its T/C is 101 % of control.

Q: What about the T/C [2] of the same compound?
A: Its T/C is 101 % of control.

Q: And the T/C [3]?
A: Its T/C is 105 % of control.

Q: What about the T/C [4] of the same compound?
A: Its T/C is 106 % of control.

Q: What does the source list for `Nc1ccn(C2OC(CO)C(O)C2O)c(=O)n1` (stereo not given)?
A: T/C (dose: 1.0 mg/kg/injection, vehicle: saline): 98 % of control; T/C (dose: 2.0 mg/kg/injection, vehicle: saline): 97 % of control; T/C (dose: 4.0 mg/kg/injection, vehicle: saline): 100 % of control; T/C (dose: 15.0 mg/kg/injection, vehicle: saline): 110 % of control; T/C [16]: 160 % of control; T/C [17]: 203 % of control

Q: For `O=C(O)c1cc(Cc2ccc(O)c(C(=O)O)c2)ccc1O` (tested in a mixture with another compound), which T/C (dose: 6.25 mg/kg/injection, vehicle: Klucel (hydroxypropylcellulose) (HPC)) is on record?
A: The T/C was 107 % of control.

Q: What about the T/C (dose: 12.5 mg/kg/injection, vehicle: Klucel (hydroxypropylcellulose) (HPC)) of the same compound?
A: Its T/C is 97 % of control.

Q: And the T/C (dose: 25.0 mg/kg/injection, vehicle: Klucel (hydroxypropylcellulose) (HPC))?
A: The T/C was 101 % of control.

Q: And the T/C (dose: 50.0 mg/kg/injection, vehicle: Klucel (hydroxypropylcellulose) (HPC))?
A: The T/C was 97 % of control.

Q: What about the T/C (dose: 100.0 mg/kg/injection, vehicle: Klucel (hydroxypropylcellulose) (HPC)) of the same compound?
A: The T/C was 95 % of control.

Q: Which T/C [13] does the source give for `OCC12COCN1COC2` here?
A: Its T/C is 103 % of control and 104 % of control.

Q: And the T/C [14]?
A: Its T/C is 98 % of control and 101 % of control.

Q: What about the T/C [16] of the same compound?
A: The T/C was 100 % of control and 106 % of control.

Q: What about the T/C [17] of the same compound?
A: Its T/C is 97 % of control and 102 % of control.

Q: What about the T/C [18] of the same compound?
A: The T/C was 98 % of control.

Q: What about the T/C [19] of the same compound?
A: The T/C was 104 % of control and 112 % of control.

Q: Which T/C (dose: 2.0 mg/kg/injection, vehicle: saline + alcohol) does the source give for `COC(=O)C12OCC34C(CC5C(C)C6=CC(=O)OC6=CC5(C)C3C(O)C1O)OC(=O)C(OC(C)=O)C24` (stereo not given) here?
A: The T/C was 102 % of control.

Q: What about the T/C (dose: 4.0 mg/kg/injection, vehicle: saline + alcohol) of the same compound?
A: Its T/C is 97 % of control.

Q: What about the T/C (dose: 8.0 mg/kg/injection, vehicle: saline + alcohol) of the same compound?
A: Its T/C is 96 % of control.

Q: What about the T/C (dose: 16.0 mg/kg/injection, vehicle: saline + alcohol) of the same compound?
A: The T/C was 98 % of control.

Q: What about the T/C (dose: 125.0 micrograms/kg/injection, vehicle: saline + alcohol) of the same compound?
A: Its T/C is 114 % of control.

Q: And the T/C (dose: 250.0 micrograms/kg/injection, vehicle: saline + alcohol)?
A: The T/C was 118 % of control.

Q: What about the T/C (dose: 500.0 micrograms/kg/injection, vehicle: saline + alcohol) of the same compound?
A: The T/C was 109 % of control.

Q: What about the T/C (dose: 1000.0 micrograms/kg/injection, vehicle: saline + alcohol) of the same compound?
A: Its T/C is 106 % of control.

Q: And the T/C (dose: 2000.0 micrograms/kg/injection, vehicle: saline + alcohol)?
A: The T/C was 112 % of control.

Q: What does the source list for `Nc1nnc[se]1`?
A: T/C [20]: 122 % of control; T/C [15]: 123 % of control; T/C [9]: 123 % of control

Q: Which T/C [20] does the source give for `CCCCCCCCCCCCCC#CC(=O)O` here?
A: Its T/C is 97 % of control.

Q: What about the T/C [15] of the same compound?
A: Its T/C is 93 % of control.

Q: And the T/C [9]?
A: Its T/C is 101 % of control.

Q: What about the T/C [10] of the same compound?
A: Its T/C is 89 % of control.

Q: And the T/C [11]?
A: The T/C was 93 % of control.

Q: `N=c1ccn2c(n1)OC1C(O)C(CO)OC12` (stereo not given) was tested. Which T/C [14] did it give?
A: The T/C was 101 % of control.

Q: What about the T/C [16] of the same compound?
A: The T/C was 102 % of control.

Q: What about the T/C [17] of the same compound?
A: Its T/C is 107 % of control.

Q: What does the source list for `CC1OC(OC2CC(O)(C(=O)CO)Cc3c(O)c4c(c(O)c32)C(=O)c2ccccc2C4=O)CC(N)C1O` (stereo not given)?
A: T/C (dose: 0.06 mg/kg/injection, vehicle: water): 110 % of control; T/C (dose: 0.12 mg/kg/injection, vehicle: other): 105 % of control; T/C (dose: 0.12 mg/kg/injection, vehicle: saline): 108 % of control; T/C (dose: 0.12 mg/kg/injection, vehicle: water): 122 % of control; T/C (dose: 0.25 mg/kg/injection, vehicle: other): 113 % of control; T/C (dose: 0.25 mg/kg/injection, vehicle: saline): 103 % of control; T/C (dose: 0.25 mg/kg/injection, vehicle: water): 112 % of control; T/C (dose: 0.5 mg/kg/injection, vehicle: saline): 110 % of control; T/C (dose: 0.5 mg/kg/injection, vehicle: water): 120 % of control; T/C (dose: 1.0 mg/kg/injection, vehicle: water): 173 % of control

Q: With `CC(=O)O[C@@]1(C)[C@@H](C)C(=O)O[C@@H]2CCN3CC=C(COC(=O)[C@]1(C)O)[C@H]23` as the compound, how does the T/C [10] read?
A: Its T/C is 110 % of control.

Q: What about the T/C [11] of the same compound?
A: Its T/C is 113 % of control.

Q: What about the T/C [12] of the same compound?
A: The T/C was 285 % of control.

Q: With `COc1cc2oc(=O)ccc2cc1[C@@H]1OC(=O)C2(C)O[C@@H]12` (stereo not given in full) as the compound, how does the T/C (dose: 0.16 mg/kg/injection, vehicle: water) read?
A: The T/C was 106 % of control.

Q: What about the T/C (dose: 0.31 mg/kg/injection, vehicle: water) of the same compound?
A: The T/C was 94 % of control and 96 % of control.

Q: What about the T/C [5] of the same compound?
A: The T/C was 99 % of control and 112 % of control.

Q: And the T/C [6]?
A: Its T/C is 91 % of control and 100 % of control.

Q: What about the T/C [7] of the same compound?
A: The T/C was 95 % of control and 100 % of control.

Q: And the T/C [8]?
A: Its T/C is 97 % of control and 98 % of control.

Q: And the T/C (dose: 10.0 mg/kg/injection, vehicle: water)?
A: Its T/C is 94 % of control.

Q: Which T/C [13] does the source give for `C=CCc1cn(C2CC(O)C(CO)O2)c(=O)[nH]c1=O` (stereo not given) here?
A: Its T/C is 100 % of control.

Q: And the T/C [14]?
A: The T/C was 88 % of control.

Q: What about the T/C [16] of the same compound?
A: Its T/C is 87 % of control.

Q: What about the T/C [17] of the same compound?
A: The T/C was 100 % of control.

Q: What about the T/C [18] of the same compound?
A: Its T/C is 96 % of control.

Q: What about the T/C [19] of the same compound?
A: Its T/C is 98 % of control.
